Laboratory results: patent publication US20210308113A1, “METHOD OF ADMINISTERING A […] EFFECTIVE AMOUNT OF 5-[[4-[2-[5-(1-HYDROXYETHYL)PYRIDIN-2-YL]ETHOXY]PHENYL]METHYL]-1,3-THIAZOLIDINE-2,4-DIONE” (MINORYX THERAPEUTICS S.L., priority 2018, published 2021)
Like-named read-outs stand apart in the source and are kept apart here.

Experiments:
A549 cells = test: Seahorse oxygen consumption rate (OCR) in A549 cells; type: cell-based; conditions: Homo sapiens, 1 h incubation at 37° C.
Experimental: (§1) To determine whether Compound (1) HCl has any effect on pyruvate-mediated mitochondrial respiration, the extracellular flux analyzer Seahorse was used as described in Compan et al. Seahorse experiments were performed in the following cell lines: HeLa (Cervix cancer cells), A549 (lung cancer cells), wild type MDA MB 231, and MDA MB 231 in which MPC2 has been deleted, leading to inactivation of the MPC (MDA MB231 KO). MDA MB231 cells are epithelial breast cancer cells. Cells were incubated with increasing concentrations of the compounds for one hour at 37° C. before oxygen consumption rate (OCR) measurements. The Seahorse analyzer allowed to measure basal and maximal respiration measured upon depolarization with 1 μM CCCP. Effects of Compound (1) HCl on oxygen consumption rates (OCR) in HeLa cells (FIG. 3A) and A549 cells (FIG. 3B) in a representative experiment of n=3. OCR values are expressed as ratios of OCR in the presence of different concentrations of compounds over the OCR in PBS alone.

[1] = Multiple ascending dose (MAD) study, pharmacokinetics in human subjects; type: in vivo
Experimental: The mean AUC0-tau ss (% CV) (135 μg·h/mL (20)) and Cmaxss (% CV) (9488 ng/ml (17)) was determined at the steady state day 8 in case 135 mgs. The mean AUC0-tau ss (% CV) (299 μg·h/mL (21) and Cmaxss(% CV) (17200 ng/ml (18) was determined at the steady state day 8 in case 270 mgrs.
Across all ascending dose studies in humans the increase in dose is linearly related to the increase in AUC. Because of the inter subject variability in clearance it is required to select a start dose which is not excessively above the 200 μg·h/mL target AUCs.
The PK data from the MAD study was used to generate a start dose which is most likely no cause toxicity or adverse events in subjects. A dose of 150 mg was chosen as it would give a geometric mean AUCtau of 167 μg·h/mL SD 33 with a 95% confidence interval of 102-232 μg·h/mL. At this dose approximated 75% of patients will be below 200 μg·h/mL and it is unlikely that any patient will exceed 240 μg·h/mL.

MDA MB231 KO cells = test: Seahorse oxygen consumption rate (OCR) in MDA MB231 KO cells (MPC2 deleted); type: cell-based; conditions: MPC activity genetically deleted
Experimental: as §1, with “CCCP. […] The KO cells have been deleted” for “CCCP. Effects”, “of the MPC2 gene” for “of Compound (1) HCl on oxygen consumption rates (OCR) in HeLa cells (FIG. 3A)”, “and therefore they display no MPC activity. The top panel show” for “and A549 cells (FIG. 3B) in”, “of either wild type (WT) or KO cell lines. […]” for “of n=3.”, “of the tested compound” for “of compounds”

[2] = system: MCD diet fed C57BL6/J mice; test: 7-week Methionine Choline Deficient (MCD) diet NASH mouse model; type: in vivo
Experimental: The preventive effects of Compound (1) HCl was evaluated in a 7-week Methionine Choline Deficient (MCD) diet NASH mouse model (Verdelho Machado et al.). After the acclimation period, C57BL6/J male mice (n=20) were weighed and randomized into 2 homogenous treatment groups based on body weight (n=10/group), put on a MCD diet, and treated BID orally with vehicle or Compound (1) HCl for 7 weeks. Compound (1) HCl was dosed 62.5 mg/kg BID orally by gavage. […] Body weight was measured 3 times/week until the end of the experimental phase. At 7 weeks of diet/treatment, mice were weighed and treated at ˜08:00 am in the morning, then bled (maximal volume/EDTA) at […]. Plasma was then immediately isolated and stored at −80° C. prior to assay plasma ALT and AST. The plasma volume left over was stored at −80° C. for eventual additional analysis. After blood collection, the mice were sacrificed by cervical dislocation under isoflurane anesthesia and exsanguinated with sterile saline. A NAFLD scoring system (NAS) adapted from Kleiner et al. (Hepatology. 41(6):1313-1321 (2005)) using the criteria described in the Table 2 below: Several other histopathological observations described in clinical human cases and originally reported in the NAS scoring system published by Kleiner et al. were not observed in this animal study, such as lipogranuloma, acidophil bodies, megamitochondria, and pigmented macrophages. Therefore, it was elected not to include them in the scoring system described above. An individual mouse NAS total score was calculated for each animal by summing up the score for (1) hepatocellular steatosis, (2) liver inflammation, (3) lobular fibrosis, and (4) hepatocyte ballooning. Histology analysis was performed (oil red 0, H&E and Sirius Red staining) for NAFLD scoring system (NAS) for liver steatosis, inflammation, fibrosis and hepatocyte ballooning.

HeLa cells = test: Seahorse oxygen consumption rate (OCR) in HeLa cells; type: cell-based; conditions: Homo sapiens, 1 h incubation at 37° C.
Experimental: as §1

[3] = target: T1, mitochondrial pyruvate carrier (MPC) (Homo sapiens, UniProt O95563+Q9Y5U8); test: BRET assay of MPC inhibitory activity in HEK cells expressing MPC2-Rluc8 and MPC1-Venus; type: cell-based
T1 construct: expressed in transfected cells
T1 sequence (O95563 1-127): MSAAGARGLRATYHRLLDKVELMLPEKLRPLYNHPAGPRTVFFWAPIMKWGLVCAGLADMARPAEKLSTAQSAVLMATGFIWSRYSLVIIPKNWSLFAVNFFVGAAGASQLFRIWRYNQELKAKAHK
T1 sequence (Q9Y5U8 1-109): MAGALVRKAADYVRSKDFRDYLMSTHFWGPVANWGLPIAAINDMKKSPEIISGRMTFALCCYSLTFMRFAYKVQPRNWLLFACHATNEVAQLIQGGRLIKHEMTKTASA
Experimental: The MPC is a heterodimer composed of two subunits, MPC1 and MPC2. MPC1 and MPC2 interact to form an active carrier. In the assay, MPC2 was fused to Rluc8 (Donor) and MPC1 to Venus (Acceptor). These chimeric proteins were stably expressed in HEK cells. BRET activity was measured following addition of coelenterazine in the culture medium. Coelenterazine enters into cells and in contact with luciferase Rluc8 emits light, which activates the emission of fluorescence by the Acceptor, provided the distance between the Donor and Acceptor is <[…]. If the distance between Donor and Acceptor is >[…], no BRET activity is measured. The level of BRET activity reflects a change in the conformation of the MPC: it is high when the carrier is in a closed conformation, low when the carrier is at rest and intermediary when it transports pyruvate. In this case, the BRET activity is the mean value between the BRET value when the carrier is at rest (Maximal distance between Donor and Acceptor) and the BRET value when it is closed (Shortest distance between Donor and Acceptor)
A wide range of concentrations of each of the tested compounds was used from 1 nM to 100 μM.

[4] = system: wild type MDA MB231 cells; test: Seahorse oxygen consumption rate (OCR) in wild type MDA MB231 cells; type: cell-based
Experimental: as §1, with “CCCP. […] The KO cells have been deleted” for “CCCP. Effects”, “of the MPC2 gene” for “of Compound (1) HCl on oxygen consumption rates (OCR) in HeLa cells (FIG. 3A)”, “and therefore they display no MPC activity. The top panel show” for “and A549 cells (FIG. 3B) in”, “of either wild type (WT) or KO cell lines. […]” for “of n=3.”, “of the tested compound” for “of compounds”

adiponectin = test: Plasma adiponectin by ELISA in Sprague Dawley rats as a measure of PPAR gamma engagement; type: in vivo, rat; conditions: 7 days, 54 mg/Kg/day, plasma 1 h after last administration, vs vehicle p<0.0001
Experimental: Evaluation of effect of Compound (1) HCl on adiponectin was performed in Sprague Dawley wild type rats as a measure of PPAR gamma engagement. The rats were treated for 7 days with increasing doses of Compound (1) HCl at 54 mg/Kg/day. Plasma were obtained at 1 h after the last Compound (1) HCl administration. Adiponectin levels were measured by ELISA. Results were represented as mean+standard error of the mean of n=8. Data were analyzed by Kruskal-Wallis followed by the Dunn post-hoc test versus the vehicle group (****, p<0.0001).

For `CC(O)c1ccc(CCOc2ccc(CC3SC(=O)NC3=O)cc2)nc1.Cl` (stereo not drawn) [Compound (1) HCl, 5-[[4-[2-[5-(1-hydroxyethyl)pyridin-2-yl]ethoxy]phenyl]methyl]-1,3-thiazolidine-2,4-dione hydrochloride], the IC50 (A549 cells) was ~5 µM, the “change in clearance with time” value ([1]; human subjects, 135 mg and 270 mg) was “no change in clearance with time” and the “mean Cmaxss” value ([1]; human subjects, 135 mg, steady state day 8) was 9488 ng/mL. The “mean Cmaxss” value ([1]; human subjects, 270 mg, steady state day 8) was 17200 ng/mL, the AUC ([1]; human, plasma, oral, start dose 150 mg, generated from MAD PK data, SD 33, 95% CI 102-232, read-out: geometric mean AUCtau) was 167 µg·h/mL and the AUC ([1]; in vivo, human subjects, 135 mg, steady state day 8, read-out: mean AUC0-tau ss) was 135 µg·h/mL. The AUC ([1]; in vivo, human subjects, 270 mg, steady state day 8, read-out: mean AUC0-tau ss) was 299 µg·h/mL, the “Cmin ss associated with the target AUC0-tau ss” value ([1]; line of best fit of day 8 MAD data, target AUC0-tau ss 200 μg·h/mL) was 5716 ng/mL and the “effect on oxygen consumption” value (MDA MB231 KO cells) was “does not inhibit oxygen consumption”. For the same molecule, the hepatic cholesterol levels ([2]; 62.5 mg/kg BID orally, 7 weeks) was “did not show a change”, the body weight loss ([2]; 62.5 mg/kg BID orally, day 14 to day 50) was “less severe decline in body weight loss” and the liver inflammation ([2]; 7 weeks) was “total disappearance of inflammation”. For the same molecule, the “oil red o staining %” value ([2]; 7 weeks, vs vehicle p<0.001) was “extremely low”, the steatosis score ([2]; 7 weeks, vs vehicle p<0.001) was “blunted steatosis score” and the IC50 (HeLa cells) was ~5 µM. For the same molecule, the IC50 ([3]; BRET assay, HEK cells, read-out: IC50 MPC inhibitory activity) was 4.1 µM, the “effect on oxygen consumption” value [4] was “inhibits oxygen consumption in a MPC dependent manner” and the plasma adiponectin levels (adiponectin) was “significantly increased”.
For `CC(O)c1ccc(CCOc2ccc(CC3SC(=O)NC3=O)cc2)nc1` (stereo not drawn) [Compound (1), 5-[[4-[2-[5-(1-hydroxyethyl)pyridin-2-yl]ethoxy]phenyl]methyl]-1,3-thiazolidine-2,4-dione], the linearity of pharmacokinetics ([1]; humans) was “linear pharmacokinetics” and the oral bioavailability ([1]; humans) was “orally bioavailable”.
With `CN(CCOc1ccc(CC2SC(=O)NC2=O)cc1)c1ccccn1` (stereo not drawn) [Rosiglitazone, rosiglitazone, reference compound] the IC50 [3] was 2 µM.
